Assay results taken from US6498163B1, “Pyrido[2,3-D]pyrimidines and 4-aminopyrimidines as inhibitors of cellular proliferation” (Warner-Lambert Company, priority 1997, dated 2002).
Where a name gives a salt, the structure may show the parent alone. Read-outs that look alike come from different tables or passages of the source.

Columns and labels:
cdk4/D = cdk4/D (Homo sapiens, UniProt P11802); experiment: Cyclin-dependent kinase 4 (cdk4) assay; format: biochemical; conditions: for cdk4/D % inhibition at 40 μM: Table 2
Sequence of cdk4/D (P11802 whole entry, species assumed): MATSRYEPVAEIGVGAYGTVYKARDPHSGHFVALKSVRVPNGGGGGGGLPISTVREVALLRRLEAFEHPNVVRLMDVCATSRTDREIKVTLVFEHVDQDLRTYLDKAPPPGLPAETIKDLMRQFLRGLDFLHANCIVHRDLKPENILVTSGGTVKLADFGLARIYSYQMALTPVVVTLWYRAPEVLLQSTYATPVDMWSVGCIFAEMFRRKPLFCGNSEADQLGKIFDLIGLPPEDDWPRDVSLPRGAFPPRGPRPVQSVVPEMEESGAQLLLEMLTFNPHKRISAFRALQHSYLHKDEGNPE
Sequence of cdk4/D (P24385 whole entry partner, species assumed): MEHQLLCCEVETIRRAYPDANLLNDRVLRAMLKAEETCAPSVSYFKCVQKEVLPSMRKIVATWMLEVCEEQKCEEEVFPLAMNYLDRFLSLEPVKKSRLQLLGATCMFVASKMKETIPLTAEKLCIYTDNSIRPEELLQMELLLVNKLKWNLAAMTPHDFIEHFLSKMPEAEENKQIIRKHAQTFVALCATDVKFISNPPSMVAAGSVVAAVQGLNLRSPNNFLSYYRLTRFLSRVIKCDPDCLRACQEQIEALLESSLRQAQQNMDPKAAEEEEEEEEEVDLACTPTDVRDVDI
Experimental: As noted above, the compounds of this invention are potent inhibitors of cyclin-dependent kinases, and accordingly, are useful in treating and preventing atherosclerosis, and other cell proliferative disorders like cancer. […] A typical assay, for instance, measures inhibitory activity against the cyclin D dependent kinase 4 enzyme (cdk4/D). […] The cdk 4 assay was carried out as follows.
Cyclin-Dependent Kinase 4 (cdk4) Assay
The total volume was 0.1 mL containing a final concentration of 20 mM TRIS (tris[hydroxymethyl]aminomethane), at pH 7.4, 50 mM NaCl, 1 mM dithiothreitol, 10 mM MgCl2, 25 μM ATP containing 0.25 μCi of [^32P]ATP, 20 ng of cdk4, 1 μg of retinoblastoma, and appropriate dilutions of a compound of the present invention. All components except the ATP were added to the wells, and the plate was placed on a plate mixer for 2 minutes. The reaction was started by adding [^32P]ATP and the plate was incubated at 25° C. for 15 minutes. The reaction was terminated by addition of 0.1 mL of 20% trichloroacetic acid (TCA). The plate was kept at 4° C. for at least 1 hour to allow the substrate to precipitate. The wells were then washed five times with 0.2 mL of 10% TCA and ^32P incorporation was determined with a beta plate counter (Wallac Inc., Gaithersburg, Md.).

[1] = biological target: T1, PDGF-β receptor tyrosine kinase (Mus musculus, UniProt P05622); experiment: PDGF receptor tyrosine kinase assay; format: biochemical; conditions: Table 4, Formula II compound
T1 construct: amplify a fragment of DNA that codes for the intracellular tyrosine kinase domain; made in house; host or cells: SF9 insect cells (baculovirus)
T1 sequence (P05622 599-961 limits assumed): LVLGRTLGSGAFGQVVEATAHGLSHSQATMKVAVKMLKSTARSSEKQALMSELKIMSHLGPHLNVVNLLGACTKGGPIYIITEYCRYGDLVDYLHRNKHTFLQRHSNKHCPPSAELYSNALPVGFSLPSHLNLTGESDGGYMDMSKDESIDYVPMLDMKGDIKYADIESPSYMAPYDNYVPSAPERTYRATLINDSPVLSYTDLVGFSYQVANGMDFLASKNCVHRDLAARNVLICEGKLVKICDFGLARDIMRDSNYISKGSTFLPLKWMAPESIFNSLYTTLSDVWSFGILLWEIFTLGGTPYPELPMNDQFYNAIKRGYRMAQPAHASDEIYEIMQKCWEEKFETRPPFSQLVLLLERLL
Experimental: (§1) The compounds of Formulas I and II also have shown good inhibitory activity against certain growth factor receptor tyrosine kinase enzymes, including fibroblast growth factor (FGF) and platelet derived growth factor (PDGF). […] The invention compounds range in IC50 inhibition against FGF tyrosine kinase generally from about 0.004 to about 40 μM. […] The assays used to determine these activities were carried out as follows:
(§2) PDGF and EGF Receptor Tyrosine Kinase Assays
(§3) Full-length cDNAs for the mouse PDGF-β and human FGF-1 (flg) receptor tyrosine kinases were obtained from J. Escobedo and prepared as described in J. Biol. Chem., 1991;262:1482-1487. PCR primers were designed to amplify a fragment of DNA that codes for the intracellular tyrosine kinase domain. The fragment was inserted into a baculovirus vector, cotransfected with AcMNPV DNA, and the recombinant virus isolated. SF9 insect cells were infected with the virus to overexpress the protein, and the cell lysate was used for the assay. […] Filters were washed three times with 15% TCA containing 100 mM sodium pyrophosphate, and the radioactivity retained on the filters counted in a Wallac 1250 Betaplate reader. Nonspecific activity was defined as radioactivity retained on the filters following incubation of samples with buffer alone (no enzyme). […]

[2] = biological target: T2, FGF-1 (flg) receptor tyrosine kinase (Homo sapiens, UniProt P11362); experiment: FGF receptor tyrosine kinase assay; format: biochemical; conditions: Table 4, Formula II compound
T2 construct: amplify a fragment of DNA that codes for the intracellular tyrosine kinase domain; made in house; host or cells: SF9 insect cells (baculovirus)
T2 sequence (P11362 478-767 limits assumed): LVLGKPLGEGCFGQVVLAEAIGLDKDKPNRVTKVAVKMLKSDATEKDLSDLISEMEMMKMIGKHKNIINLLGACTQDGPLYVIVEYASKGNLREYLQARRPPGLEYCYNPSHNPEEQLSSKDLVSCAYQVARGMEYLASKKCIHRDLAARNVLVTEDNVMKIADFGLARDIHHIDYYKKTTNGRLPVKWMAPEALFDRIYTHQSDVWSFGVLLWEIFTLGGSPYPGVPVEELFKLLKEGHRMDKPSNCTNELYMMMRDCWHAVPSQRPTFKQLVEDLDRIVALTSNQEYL
Experimental: as §1, §2, §3

cdc2/cyclinB = cdc2/cyclinB (Homo sapiens, UniProt P06493); experiment: Cyclin-dependent kinase assay cdc2/cyclinB (cdk1/B); format: biochemical; conditions: Table 1
Sequence of cdc2/cyclinB (P06493 whole entry, species assumed): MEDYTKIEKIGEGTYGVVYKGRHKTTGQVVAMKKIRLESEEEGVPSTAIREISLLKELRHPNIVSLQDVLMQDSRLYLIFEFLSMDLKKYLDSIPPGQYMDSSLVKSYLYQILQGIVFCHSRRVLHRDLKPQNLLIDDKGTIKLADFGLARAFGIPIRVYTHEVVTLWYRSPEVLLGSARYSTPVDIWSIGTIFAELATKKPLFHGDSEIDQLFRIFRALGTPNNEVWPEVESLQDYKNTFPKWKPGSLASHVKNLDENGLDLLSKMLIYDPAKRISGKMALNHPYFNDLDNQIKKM
Sequence of cdc2/cyclinB (P14635 whole entry partner, species assumed): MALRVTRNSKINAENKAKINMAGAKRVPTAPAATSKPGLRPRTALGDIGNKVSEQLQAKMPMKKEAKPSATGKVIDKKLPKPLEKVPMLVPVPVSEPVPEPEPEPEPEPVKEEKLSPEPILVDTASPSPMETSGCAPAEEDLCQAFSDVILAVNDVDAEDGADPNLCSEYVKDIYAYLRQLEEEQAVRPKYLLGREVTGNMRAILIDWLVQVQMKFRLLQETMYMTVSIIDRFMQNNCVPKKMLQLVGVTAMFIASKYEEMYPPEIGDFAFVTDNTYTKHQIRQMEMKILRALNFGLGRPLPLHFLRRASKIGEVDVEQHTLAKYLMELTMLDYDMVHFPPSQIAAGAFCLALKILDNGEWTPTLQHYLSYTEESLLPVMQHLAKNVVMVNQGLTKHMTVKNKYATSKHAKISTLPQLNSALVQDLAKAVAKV

[3] = tested on: MCF-7 human mammary tumor xenografts; experiment: MCF-7 human mammary tumor xenograft; format: in vivo, female nude mice; conditions: 5 to 20 mg/kg, q12 h×2; days 1-14, subcutaneous MCF-7 xenografts
[4] = Plasma levels in mice after dosing; format: in vivo, nude mice; conditions: intraperitoneally at 12 mg/kg, at 30 minutes following dosing
Experimental: For example, the compound of Example 60 was administered orally at 5 mg/kg to mice, and plasma levels of about 200 nM were measured at 30 minutes following dosing. The compound was also administered intraperitoneally at 12 mg/kg and produced a peak plasma concentration of 10,000 nM at 30 minutes following dosing.

[5] = Table 2, Formula II compounds, read-out: cdk4/IC50 IC50

Compound | melting point | other results
3-(4-Ethylamino-2-phenylamino-pyrimidin-5-yl)-but-2-enoic acid ethyl ester [Example 73] | – | cdk4/D % inhibition at 40 μM (cdk4/D): 58%
3-(4-Ethylamino-2-phenylamino-pyrimidin-5yl)acrylonitrile [Example 72] | – | cdk4/D % inhibition at 40 μM (cdk4/D): 18%
CCn1c(=O)ccc2cnc(NC(C)C)nc21 (as salt: sulfate) [Example 47, 8-Ethyl-2-isopropylamino-8H-pyrido[2,3-d]pyrimidin-7-one] | 119 to 120 °C | –
CCNc1nc(Nc2ccccc2)ncc1/C=C/C(=O)OCC [Example 17, Ethyl 3-(4-Ethylamino-2-phenylamino-pyrimidin-5-yl)acrylate] | 125 to 126 °C | IC50 (cdk4/D; [5]): 2000 nM; IC50 [1]: 3700 nM; IC50 [2]: 4500 nM
CCOC(=O)/C=C/c1cnc(Nc2ccccc2)nc1N [Example 28, Ethyl 3-(4-Amino-2-phenylamino-pyrimidin-5-yl)acrylate] | 190 to 192 °C | IC50 (cdk4/D; [5]): 65000 nM
O=c1ccc2cnc(Nc3ccccc3)nc2n1CCCOCc1ccccc1 [Example 38, 8-(3-Benzyloxypropyl)-2-phenylamino-8H-pyrido[2,3-d]pyrimidin-7-one] | – | IC50 (cdk4/D; Table 1, read-out: cdk4/D IC50): 2700 nM; IC50 (cdc2/cyclinB): 29800 nM
CCCCn1c(=O)ccc2cnc(Nc3ccccc3)nc21 [Example 40, 8-Butyl-2-phenylamino-8H-pyrido[2,3-d]pyrimidin-7-one] | 183 to 184 °C | –
CC(C)n1c(=O)ccc2cnc(Nc3ccc(N4CCN(C)CC4)cc3)nc21 [Example 60, 8-Isopropyl-2-[4-(4-methylpiperazin-1-yl)-phenylamino]-8H-pyrido[2,3-d]pyrimidin-7-one] | – | tumor growth inhibition [3]: statistically insignificant tumor growth inhibitions; peak plasma concentration [4]: 10,000 nM
CC(C)Nc1ncc2ccc(=O)n(C)c2n1 [Example 67, 2-Isopropylamino-8-methyl-8H-pyrido[2,3-d]pyrimidin-7-one] | 148 to 149 °C | –
CCC(CC)n1c(=O)ccc2cnc(Nc3ccc(N4CCN(C)CC4)cc3)nc21 [Example 77, 8-(1-Ethylpropyl)-2-[4-(4-methylpiperazin-1-yl)-phenylamino]-8H-pyrido[2,3-d]pyrimidin-7-one] | 155 to 157 °C | –
CCn1c(=O)c(C)cc2cnc(Nc3ccc(N4CCN(C)CC4)cc3)nc21 [Example 84] | – | IC50 (cdk4/D; Table 1, read-out: cdk4/D IC50): 180 nM
O=c1ccc2cnc(Nc3ccccc3)nc2n1-c1ccccc1 [Example 101, 2-Phenylamino-8-phenyl-8H-pyrido[2,3-]pyrimidin-7-one] | 300 to 302 °C | –
CN1CCN(c2ccc(Nc3ncc4ccc(=O)n(CCOCc5ccccc5)c4n3)cc2)CC1 [Example 140, 8-(2-Benzyloxy-ethyl)-2-[4-(4-methyl-piperazin-1-yl)-phenylamino]-8H-pyrido[2,3-d]pyrimidin-7-one] | 183 to 185 °C | –
CN(C)CCCN1CCN(c2ccc(Nc3ncc4ccc(=O)n(C5CCCCC5)c4n3)cc2)CC1 [Example 144, 8-Cyclohexyl-2-{4-[4-(3-dimethylamino-propyl)-piperazin-1-yl]-phenylamino}-8H-pyrido[2,3-d]pyrimidin-7-one] | 169 to 170 °C | –
CN(C)c1ccc(Nc2ncc3ccc(=O)n(C4CCCCC4)c3n2)cc1 [Example 147, 8-Cyclohexyl-2-(4-dimethylamino-phenylamino)-8H-pyrido[2,3-d]pyrimidin-7-one] | – | IC50 (cdk4/D; Table 1, read-out: cdk4/D IC50): 480 nM; IC50 (cdc2/cyclinB): 89 nM
O=c1ccc2cnc(Nc3ccc(N4CCCCC4)cc3)nc2n1C1CCCCCC1 [Example 163, 8-Cycloheptyl-2-(4-piperidin-1-yl-phenylamino)-8H-pyrido[2,3-d]pyrimidin-7-one] | 201 to 202 °C | –
CCOC(=O)C1CCN(c2ccc(Nc3ncc4ccc(=O)n(C5CCCCC5)c4n3)cc2)CC1 [Example 164, 1-[4-(8-Cyclohexyl-7-oxo-7,8-dihydro-pyrido[2,3-d]pyrimidin-2-ylamino)-phenyl]-piperidine-4-carboxylic acid ethyl ester] | 174 to 175 °C | –

Continued, in another order:

melting point | Compound | other results
156 to 157 °C | O=c1ccc2cnc(NCCN3CCCCC3)nc2n1C1CCCCC1 [Example 165, 8-Cyclohexyl-2-(2-piperidin-1-yl-ethylamino)-8H-pyrido[2,3-d]pyrimidin-7-one] | –
111 to 112 °C | O=c1ccc2cnc(NCCCN3CCCCC3)nc2n1C1CCCCC1 [Example 166, 8-Cyclohexyl-2-(3-piperidin-1-yl-propylamino)-8H-pyrido[2,3-d]pyrimidin-7-one] | –
243 to 244 °C | O=c1ccc2cnc(Nc3ccc(N4CCCCC4)cc3)nc2n1C1CC2CCC1C2 (stereo not drawn) [Example 181, 8-Bicyclo[2.2.1]hept-2-yl-2-(4-piperidin-1-yl-phenylamino)-8H-pyrido[2,3-d]pyrimidin-7-one] | –
194 to 195 °C | O=c1ccc2cnc(Nc3ccc(N4CCCC(CO)C4)cc3)nc2n1C1CCCCC1 (stereo not drawn) [Example 185, 8-Cyclohexyl-2-[4-(3-hydroxymethyl-piperidin-1-yl)-phenylamino]-8H-pyrido[2,3-d]pyrimidin-7-one] | –
205 to 206 °C | O=c1ccc2cnc(Nc3ccc(SC(F)(F)F)cc3)nc2n1C1CC2CCC1C2 (stereo not drawn) [Example 221, 8-Bicyclo[2.2.1]hept-2-yl-2-(4-trifluoromethylsulfanyl-phenylamino)-8H-pyrido[2,3-d]pyrimidin-7-one] | –
183 to 184 °C | O=c1ccc2cnc(NCc3ccccc3)nc2n1C1CCCCC1 [Example 222, 2-Benzylamino-8-cyclohexyl-8H-pyrido[2,3-d]pyrimidin-7-one] | –
209 °C | O=c1ccc2cnc(Nc3ccc(N4CCCCC4)cc3)nc2n1C1CC2CCC1C2 (stereo not drawn) [Example 229, 8-Bicyclo[2.2.1]hept-2-yl-2-(4-piperidin-1-yl-phenylamino)-8H-pyrido[2,3-d]pyrimidin-7-one] | –
128 °C | COc1ccc(CNc2ncc3ccc(=O)n(C(C)C)c3n2)cc1OC [Example 256, 2-(3,4-Dimethoxy-benzylamino)-8-isopropyl-8H-pyrido[2,3-d]pyrimidin-7-one] | –
199 to 200 °C | CCn1c(=O)c(C)cc2cnc(Nc3ccc(N4CCC(CCCN5CCOCC5)CC4)cc3)nc21 [Example 264, 8-Ethyl-6-methyl-2-{4-[4-(3-morpholin-4-yl-propyl)-piperidin-1-yl]-phenylamino}-8H-pyrido[2,3-d]pyrimidin-7-one] | –
